Laboratory results reported in the supplement of paper PMC10307832.

How the values were obtained:
Test in all cases: relative viability (nuclei count vs DMSO), 5 days (fraction); higher = more cells survive
[1] = compound: COc1cc2nccc(Oc3ccc(NC(=O)C4(C(=O)Nc5ccc(F)cc5)CC4)cc3)c2cc1OC [Cabozantinib] + CS(=O)(=O)N1CCN(Cc2cc3nc(-c4cccc5[nH]ncc45)nc(N4CCOCC4)c3s2)CC1 [Pictilisib] (partner 1 µM)
In short: (§1)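 Relative viability divides the nuclei count in treated wells by that in vehicle wells. Lung cancer cell lines were seeded in 1536-well plates, dosed by pin tool the next day, and fixed and stained after 5 days in one step with final 0.05% Triton X-100, 1% formaldehyde and 1 ug/ml Hoechst. Dosing was a single drug or a fixed anchor-drug dose plus five library-drug doses (not always all listed) in √10 steps, and values are medians of duplicate plates imaged at 4×.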

[2] = compound: O[C@@H](COc1cccc2ncccc12)CN1CCN([C@@H]2c3ccccc3[C@@H]3[C@H](c4ccccc42)C3(F)F)CC1 [Zosuquidar] + CC(=O)c1c(C)c2cnc(Nc3ccc(N4CCNCC4)cn3)nc2n(C2CCCC2)c1=O [Palbociclib] (partner 0.5 µM)
In short: as §1

[3] = compound: O[C@@H](COc1cccc2ncccc12)CN1CCN([C@@H]2c3ccccc3[C@@H]3[C@H](c4ccccc42)C3(F)F)CC1 [Zosuquidar] + Nc1nc2[nH]cc(CCc3ccc(C(=O)N[C@@H](CCC(=O)O)C(=O)O)cc3)c2c(=O)[nH]1 [Pemetrexed] (partner 0.2 µM)
In short: as §1

[4] = compound: COc1cc2nccc(Oc3ccc(NC(=O)C4(C(=O)Nc5ccc(F)cc5)CC4)cc3)c2cc1OC [Cabozantinib] + C[C@]1(O)C[C@@H](c2nc(-c3ccc4ccc(-c5ccccc5)nc4c3)c3c(N)nccn32)C1 [Linsitinib] (partner 1 µM)
In short: as §1

| Cell Line | relative viability ([1]; first compound 0.02 µM) | relative viability ([1]; first compound 0.06325 µM) | relative viability ([1]; first compound 0.2 µM) | relative viability ([1]; first compound 0.6325 µM) | relative viability ([1]; first compound 2 µM) | relative viability ([2]; first compound 0.01 µM) | relative viability ([2]; first compound 0.03162 µM) | relative viability ([2]; first compound 0.1 µM) | relative viability ([2]; first compound 0.3162 µM) | relative viability ([2]; first compound 1 µM) | relative viability ([3]; first compound 0.01 µM) | relative viability ([3]; first compound 0.03162 µM) | relative viability ([3]; first compound 0.1 µM) | relative viability ([3]; first compound 0.3162 µM) | relative viability ([3]; first compound 1 µM) | relative viability ([4]; first compound 0.02 µM) | relative viability ([4]; first compound 0.06325 µM) | relative viability ([4]; first compound 0.2 µM) | relative viability ([4]; first compound 0.6325 µM) | relative viability ([4]; first compound 2 µM) |
| --- | --- | --- | --- | --- | --- | --- | --- | --- | --- | --- | --- | --- | --- | --- | --- | --- | --- | --- | --- | --- |
| NCI-H1437 | 0.382 | 0.474 | 0.486 | 0.471 | 0.429 | 0.3 | 0.333 | 0.348 | 0.272 | 0.32 | 0.331 | 0.311 | 0.303 | 0.296 | 0.337 | 1.12 | 1.26 | 1.06 | 1.13 | 0.982 |
| NCI-H1975 | 0.28 | 0.322 | 0.297 | 0.303 | 0.337 | 0.587 | 0.475 | 0.582 | 0.714 | 0.531 | 0.279 | 0.299 | 0.293 | 0.272 | 0.29 | 1 | 1.09 | 0.895 | 0.965 | 0.898 |
| BEN | 0.58 | 0.632 | 0.576 | 0.601 | 0.458 | 0.467 | 0.491 | 0.456 | 0.455 | 0.489 | 0.75 | 0.738 | 0.476 | 1.05 | 0.684 | 0.906 | 0.993 | 0.974 | 0.795 | 0.597 |
| NCI-H460 | 0.232 | 0.44 | 0.379 | 0.23 | 0.439 | 0.15 | 0.18 | 0.203 | 0.171 | 0.19 | 0.0576 | 0.0545 | 0.0685 | 0.0617 | 0.0615 | 0.941 | 0.89 | 0.83 | 0.805 | 0.797 |
| NCI-H1944 | – | 0.367 | 0.369 | 0.34 | 0.342 | 0.343 | 0.358 | 0.342 | 0.391 | 0.319 | 0.583 | 0.585 | 0.604 | 0.678 | 0.665 | – | 1.18 | 1.09 | 1.12 | 1.07 |
| HOP-62 | 0.959 | 0.707 | 1.08 | 0.57 | 0.683 | 0.444 | 0.535 | 0.444 | 0.426 | 0.401 | 0.256 | 0.38 | 0.341 | 0.308 | 0.295 | 1.09 | 0.974 | 1.1 | 1.01 | 1.02 |
| HCC-366 | 0.0953 | 0.105 | 0.158 | 0.0782 | 0.113 | 0.322 | 0.402 | 0.355 | 0.394 | 0.338 | 0.177 | 0.155 | 0.147 | 0.145 | 0.184 | 0.772 | 0.649 | 0.703 | 0.637 | 0.554 |
| NCI-H3122 | 0.512 | 0.622 | 0.579 | 0.77 | 0.769 | 0.177 | 0.195 | 0.18 | 0.213 | 0.197 | 0.19 | 0.188 | 0.192 | 0.19 | 0.204 | 1.01 | 1.03 | 1.08 | 0.949 | 1 |
